Measurements published in US9126984B2, “4-(indol-3-yl)-pyrazole derivatives, pharmaceutical compositions and methods for use” (ITEOS THERAPEUTICS, priority 2013, dated 2015).
pIC50: −log10 of the molar value.

Key:
[1] = target: T1, human recombinant TDO2 enzyme (Homo sapiens, UniProt P48775); assay: Assay for TDO2 enzymatic activity determination; type: biochemical; settings: human recombinant TDO2, L-Trp 1 mM, room temperature one hour, kynurenine absorbance at 480 nm
T1 construct: made in house
T1 sequence (P48775 whole entry): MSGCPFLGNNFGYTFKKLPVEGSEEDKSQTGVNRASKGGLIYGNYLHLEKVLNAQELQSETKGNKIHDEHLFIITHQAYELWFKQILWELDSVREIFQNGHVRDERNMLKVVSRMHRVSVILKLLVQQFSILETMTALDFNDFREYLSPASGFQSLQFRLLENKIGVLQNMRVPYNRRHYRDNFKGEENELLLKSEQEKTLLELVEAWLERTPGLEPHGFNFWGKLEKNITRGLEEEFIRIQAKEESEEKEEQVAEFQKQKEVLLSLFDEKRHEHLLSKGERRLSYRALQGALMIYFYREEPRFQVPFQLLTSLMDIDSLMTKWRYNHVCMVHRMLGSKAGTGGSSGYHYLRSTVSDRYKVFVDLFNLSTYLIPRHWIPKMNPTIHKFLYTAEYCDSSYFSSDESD
Protocol: To measure the TDO2 activity, the reaction mixture contained (final concentrations) potassium phosphate buffer (50 mM, pH 7.5), ascorbic acid (0.25 M), methylene blue (0.125 μM), catalase (40 units/mL, from bovine liver, Sigma), and human recombinant TDO2 enzyme (prepared as described in Dolusic et al. J. Med. Chem.; 2011, 54, 5320-5334; 0.9 μg) without or with the compounds of the present invention embodiments at the indicated concentrations (total volume 112.5 μL). The reaction was initiated by the addition of 37.5 μL of L-Trp (final concentration 1 mM) at room temperature. The reaction was conducted at room temperature during one hour and stopped by the addition of 30 μL of 30% (w/v) trichloroacetic acid.
To convert N-formylkynurenine into kynurenine, the reaction mixture was incubated at 65° C. for 30 min. Then 150 μL of the reaction mixture was mixed with 120 μL, of 2.5% (w/v) 4-(dimethylamino)-benzaldehyde in acetic acid and incubated for 5 min at room temperature. Kynurenine concentrations were determined by measuring the absorbance at 480 nm. A standard curve was made with pure kynurenine. The TDO activity was measured as described above using ten serial concentrations of certain embodiments of the compounds of the present invention. Data were fitted using the Prism software (GraphPad Software, Inc.).

[2] = target: T2, murine mastocytoma P815 cells overexpressing hTDO2 (Homo sapiens, UniProt P48775); assay: Cellular assay for TDO2 activity determination; type: cell-based; settings: P815 cells overexpressing hTDO2, overnight incubation at 37° C., kynurenine absorbance at 480 nm
T2 construct: expressed in transfected cells; host or cells: murine mastocytoma P815 cells
T2 sequence (P48775 whole entry): as above
Protocol: The assay was performed in 96-well flat bottom plates seeded with murine mastocytoma P815 cells overexpressing hTDO2 (prepared as described in Pilotte et al., PNAS, 2012, 109(7), 2497-2502), at a concentration of 5×10^4 cells/well in a final volume of 200 μL. To determine TDO or IDO activity, the cells were incubated overnight at 37° C. at 5% CO2 in IMDM (Invitrogen) supplemented with 2% FBS and 2% penicillin/streptomycin in the presence of the compounds of the present invention, at different concentrations.
The plates were then centrifuged 5 min at 1000 rpm, and 100 μL of the supernatant were collected in a conical plate, 30 uL of TCA 30% were added and a further centrifugated at 3000×g for 10 minutes. 100 μL of the supernatant were collected in a flat bottomed plate and 100 μL of 2% (w/v) 4-(dimethylamino)-benzaldehyde in acetic acid and incubated for 5 min at room temperature. Kynurenine concentrations were determined by measuring the absorbance at 480 nm. A standard curve was made with pure kynurenine. The TDO activity was measured as described above using ten serial concentrations of the compounds of the present invention. Data were fitted using the Prism software (GraphPad Software, Inc.).

Structure (SMILES)	melting point	pIC50 [1]	pIC50 [2]
CC(=O)NCCn1cc(-c2c[nH]c3cc(F)ccc23)cn1 [Example 21, N-(2-(4-(6-fluoro-1H-indol-3-yl)-1H-pyrazol-1-yl)ethyl)acetamide]	179.5 to 180.8 °C	5.00 to 6.00	–
Fc1ccc2c(-c3cnn(CCN4CCCC4)c3)c[nH]c2c1 [Example 29, 6-fluoro-3-(1-(2-(pyrrolidin-1-yl)ethyl)-1H-pyrazol-4-yl)-1H-indole]	–	5.00 to 6.00	> 6.00
CS(=O)(=O)CCn1cc(-c2c[nH]c3cc(F)c(F)cc23)cn1 [Example 32, 5,6-difluoro-3-(1-(2-(methylsulfonyl)ethyl)-1H-pyrazol-4-yl)-1H-indole]	170.6 to 171.9 °C	5.00 to 6.00	–
NC(=O)Cn1cc(-c2c[nH]c3cc(F)ccc23)cn1 [Example 38, 2-(4-(6-fluoro-1H-indol-3-yl)-1H-pyrazol-1-yl)acetamide]	–	5.00 to 6.00	5.00 to 6.00
CNC(=O)Cn1cc(-c2c[nH]c3cc(F)ccc23)cn1 [Example 39, 2-(4-(6-fluoro-1H-indol-3-yl)-1H-pyrazol-1-yl)-N-methylacetamide]	–	5.00 to 6.00	5.00 to 6.00
CN(C)C(=O)Cn1cc(-c2c[nH]c3cc(F)ccc23)cn1 [Example 40, 2-(4-(6-fluoro-1H-indol-3-yl)-1H-pyrazol-1-yl)-N,N-dimethylacetamide]	–	5.00 to 6.00	5.00 to 6.00
Fc1ccc2c(-c3cnn(CC4CCNCC4)c3)c[nH]c2c1 [Example 43, 6-fluoro-3-(1-(piperidin-4-ylmethyl)-1H-pyrazol-4-yl)-1H-indole]	–	> 6.00	> 6.00
FCCN1CCC(Cn2cc(-c3c[nH]c4cc(F)ccc34)cn2)CC1 [Example 46, 6-fluoro-3-(1-((1-(2-fluoroethyl)piperidin-4-yl)methyl)-1H-pyrazol-4-yl)-1H-indole]	–	> 6.00	> 6.00
OCCN1CCC(Cn2cc(-c3c[nH]c4cc(F)ccc34)cn2)CC1 [Example 47, 2-(4-((4-(6-fluoro-1H-indol-3-yl)-1H-pyrazol-1-yl)methyl)piperidin-1-yl)ethanol]	–	> 6.00	5.00 to 6.00
OC(CN1CCC(Cn2cc(-c3c[nH]c4cc(F)ccc34)cn2)CC1)C(F)(F)F (stereo not drawn) [Example 48, 1,1,1-trifluoro-3-(4-((4-(6-fluoro-1H-indol-3-yl)-1H-pyrazol-1-yl)methyl)piperidin-1-yl)propan-2-ol]	–	> 6.00	> 6.00
CC(=O)N1CCC(Cn2cc(-c3c[nH]c4cc(F)ccc34)cn2)CC1 [Example 51, 1-(4-((4-(6-fluoro-1H-indol-3-yl)-1H-pyrazol-1-yl)methyl)piperidin-1-yl)ethanone]	–	5.00 to 6.00	> 6.00
Fc1ccc2c(-c3cnn(CC4CCN(C5CC5)CC4)c3)c[nH]c2c1 [Example 52, 3-(1-((1-cyclopropylpiperidin-4-yl)methyl)-1H-pyrazol-4-yl)-6-fluoro-1H-indole]	–	> 6.00	> 6.00
CN1CCC(Cn2cc(-c3c[nH]c4cc(F)ccc34)cn2)CC1 [Example 53, 6-fluoro-3-(1-((1-methylpiperidin-4-yl)methyl)-1H-pyrazol-4-yl)-1H-indole]	–	> 6.00	> 6.00
CS(=O)(=O)N1CCC(Cn2cc(-c3c[nH]c4cc(F)ccc34)cn2)CC1 [Example 54, 6-fluoro-3-(1-((1-(methylsulfonyl)piperidin-4-yl)methyl)-1H-pyrazol-4-yl)-1H-indole]	–	5.00 to 6.00	5.00 to 6.00
NC(=O)[C@H]1C[C@@H](n2cc(-c3c[nH]c4cc(F)ccc34)cn2)C1 [Example 61, (1S,3R)-3-(4-(6-fluoro-1H-indol-3-yl)-1H-pyrazol-1-yl)cyclobutanecarboxamide]	–	5.00 to 6.00	> 6.00
NC(=O)[C@H]1C[C@H](n2cc(-c3c[nH]c4cc(F)ccc34)cn2)C1 [Example 62, (1R,3R)-3-(4-(6-fluoro-1H-indol-3-yl)-1H-pyrazol-1-yl)cyclobutanecarboxamide]	–	5.00 to 6.00	5.00 to 6.00
O[C@H]1CC[C@H](n2cc(-c3c[nH]c4cc(F)ccc34)cn2)CC1 [Example 69, (1R,4R)-4-(4-(6-fluoro-1H-indol-3-yl)-1H-pyrazol-1-yl)cyclohexanol]	–	5.00 to 6.00	5.00 to 6.00

Structure (SMILES)	melting point	pIC50 [1]	pIC50 [2]
Fc1ccc2c(-c3cn[nH]c3)c[nH]c2c1 [Example 70, 6-fluoro-3-(1H-pyrazol-4-yl)-1H-indole]	–	> 6.00	> 6.00
Fc1cc2[nH]cc(-c3cn[nH]c3)c2cc1F [Example 71, 5,6-difluoro-3-(1H-pyrazol-4-yl)-1H-indole]	–	> 6.00	> 6.00
Cn1cc(-c2c[nH]c3cc(F)ccc23)cn1 [Example 73, 6-fluoro-3-(1-methyl-1H-pyrazol-4-yl)-1H-indole]	–	> 6.00	> 6.00
O=C(O)CCC(=O)N1CCC(n2cc(-c3c[nH]c4cc(F)ccc34)cn2)CC1 [Example 80, 4-(4-(4-(6-fluoro-1H-indol-3-yl)-1H-pyrazol-1-yl)piperidin-1-yl)-4-oxobutanoic acid]	226 to 228 °C	4.00 to 5.00	–
CN(C)CC(=O)N1CCC(n2cc(-c3c[nH]c4cc(F)ccc34)cn2)CC1 [Example 83, 2-(dimethylamino)-1-(4-(4-(6-fluoro-1H-indol-3-yl)-1H-pyrazol-1-yl)piperidin-1-yl)ethanone]	193.7 to 196.1 °C	5.00 to 6.00	–
O=C(CO)N1CCC(n2cc(-c3c[nH]c4cc(F)ccc34)cn2)CC1 [Example 84, 1-(4-(4-(6-fluoro-1H-indol-3-yl)-1H-pyrazol-1-yl)piperidin-1-yl)-2-hydroxyethanone]	99.9 to 102.1 °C	5.00 to 6.00	–
COCC(=O)N1CCC(n2cc(-c3c[nH]c4cc(F)ccc34)cn2)CC1 [Example 85, 1-(4-(4-(6-fluoro-1H-indol-3-yl)-1H-pyrazol-1-yl)piperidin-1-yl)-2-methoxyethanone]	–	5.00 to 6.00	5.00 to 6.00
CC(C)C(=O)N1CCC(n2cc(-c3c[nH]c4cc(F)ccc34)cn2)CC1 [Example 86, 1-(4-(4-(6-fluoro-1H-indol-3-yl)-1H-pyrazol-1-yl)piperidin-1-yl)-2-methylpropan-1-one]	210.2 to 211 °C	5.00 to 6.00	–
CC(C)(C)C(=O)N1CCC(n2cc(-c3c[nH]c4cc(F)ccc34)cn2)CC1 [Example 87, 1-(4-(4-(6-fluoro-1H-indol-3-yl)-1H-pyrazol-1-yl)piperidin-1-yl)-2,2-dimethylpropan-1-one]	231 to 232 °C	5.00 to 6.00	–
O=C(C1CC1)N1CCC(n2cc(-c3c[nH]c4cc(F)ccc34)cn2)CC1 [Example 88, cyclopropyl(4-(4-(6-fluoro-1H-indol-3-yl)-1H-pyrazol-1-yl)piperidin-1-yl)methanone]	190.7 to 191.4 °C	5.00 to 6.00	–
Fc1ccc2c(-c3cnn(-c4cccnn4)c3)c[nH]c2c1 [Example 107, 6-fluoro-3-(1-(pyridazin-3-yl)-1H-pyrazol-4-yl)-1H-indole]	–	5.00 to 6.00	> 6.00
Nc1ccc(-n2cc(-c3c[nH]c4cc(F)ccc34)cn2)nn1 [Example 109, 6-(4-(6-fluoro-1H-indol-3-yl)-1H-pyrazol-1-yl)pyridazin-3-amine]	–	5.00 to 6.00	> 6.00
Fc1ccc2c(-c3cnn(-c4ccnnc4)c3)c[nH]c2c1 [Example 110, 6-fluoro-3-(1-(pyridazin-4-yl)-1H-pyrazol-4-yl)-1H-indole]	–	5.00 to 6.00	5.00 to 6.00
Fc1ccc2c(-c3cnn(-c4ccccn4)c3)c[nH]c2c1 [Example 111, 6-fluoro-3-(1-(pyridin-2-yl)-1H-pyrazol-4-yl)-1H-indole]	–	> 6.00	> 6.00
Fc1ccc2c(-c3cnn(-c4cccnc4)c3)c[nH]c2c1 [Example 112, 6-fluoro-3-(1-(pyridin-3-yl)-1H-pyrazol-4-yl)-1H-indole]	–	> 6.00	> 6.00
Fc1ccc2c(-c3cnn(-c4ccncc4)c3)c[nH]c2c1 [Example 113, 6-fluoro-3-(1-(pyridin-4-yl)-1H-pyrazol-4-yl)-1H-indole]	–	> 6.00	> 6.00
